Laboratory results: ChEMBL document CHEMBL1201862, “PubChem BioAssay data set” (2004)
Activity calls are given as the source filed them.

How the values were obtained:
[1] = decrease of insulin promoter-GFP reporter – imaging, high-content screening, mouse beta cells (AID 1628); type: functional; conditions: MIN6
[2] = MIN6 cell viability loss – mouse insulinoma, cytotoxicity control, dose response (AID 2122); type: functional;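 also: confirmatory high-throughput counterscreen run to flag cytotoxic compounds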
[3] = viability of PTEN-deleted HCT116 cells – cell-based, HCT116 PTEN knockout, dose response (AID 1047); type: functional;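 also: HCT116 colon tumor cells with PTEN knocked out; cells exposed to compound for 60 hours before readout; potency for loss of cell viability measured by luminescence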
[4] = viability of HCT116 lacking mutant beta-catenin – cell-based, human colon tumor, dose response (AID 1045); type: functional;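 also: HCT116 colon tumor cells with beta catenin knocked out; cells exposed to compound for 60 hours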
Protein skinhead-1 = biological target: T1, Protein skinhead-1 (Caenorhabditis elegans, UniProt P34707); type: functional
T1 sequence (P34707 whole entry): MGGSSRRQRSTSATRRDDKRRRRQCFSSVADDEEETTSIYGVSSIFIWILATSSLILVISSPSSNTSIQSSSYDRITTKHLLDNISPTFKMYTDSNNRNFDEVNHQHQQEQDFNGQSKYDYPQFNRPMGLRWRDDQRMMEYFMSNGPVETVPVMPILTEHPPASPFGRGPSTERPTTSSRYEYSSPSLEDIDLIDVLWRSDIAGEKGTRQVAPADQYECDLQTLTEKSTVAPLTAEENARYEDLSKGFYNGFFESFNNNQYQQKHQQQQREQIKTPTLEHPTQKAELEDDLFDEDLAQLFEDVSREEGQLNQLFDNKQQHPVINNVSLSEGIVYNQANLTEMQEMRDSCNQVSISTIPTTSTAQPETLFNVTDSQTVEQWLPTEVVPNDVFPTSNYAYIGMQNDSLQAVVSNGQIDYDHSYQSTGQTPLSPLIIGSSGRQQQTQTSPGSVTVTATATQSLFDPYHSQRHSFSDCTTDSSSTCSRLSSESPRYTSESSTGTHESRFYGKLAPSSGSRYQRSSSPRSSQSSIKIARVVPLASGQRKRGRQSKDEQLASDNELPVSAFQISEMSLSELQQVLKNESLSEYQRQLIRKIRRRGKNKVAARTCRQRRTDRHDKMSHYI

[5] = biological target: Induced myeloid leukemia cell differentiation protein Mcl-1 (Homo sapiens, UniProt Q07820); type: functional
[6] = biological target: Glucose-6-phosphate 1-dehydrogenase (Homo sapiens, UniProt P11413); assay: inhibition of Homo sapiens G6PD, dose series – biochemical, fluorescence, selectivity assay for P. falciparum G6PD inhibitor project, dose response (AID 504792); type: functional
[7] = Luminescence Cell-Based Dose Retest to Confirm Inhibitors of Cancer Stem Cells. [Related pubchem assays (depositor defined):AID2717, AID2721]; type: functional; conditions: Homo sapiens
Vero [8] = assay: cells; type: functional, cell-based; conditions: Chlorocebus sabaeus
Vero [9] = assay: cells; type: functional; conditions: Chlorocebus sabaeus
Estrogen receptor beta [10] = biological target: T2, Estrogen receptor beta (Homo sapiens, UniProt Q92731);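 also: recombinant ER-beta bound to coactivator SRC1 peptide in presence of estradiol agonist; inhibitors block coactivator peptide binding and lower the FRET signal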
Estrogen receptor beta [11] = biological target: T2, Estrogen receptor beta; assay: blockers of SRC-3 recruitment to ERβ – biochemical, ELISA, streptavidin-HRP readout, orthogonal assay, confirmation (AID 1060)
[12] = THP-1 cell cytotoxicity, dose response, cytotoxicity control for non-replicating M. tuberculosis project (AID 489025); type: functional
Caspase-3 = biological target: T3, Caspase-3 (Homo sapiens, UniProt P42574); type: functional;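 also: Dose-response selectivity test against caspase-3 for candidate inhibitors of sentrin-specific proteases (SENPs)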
T3 sequence (P42574 whole entry): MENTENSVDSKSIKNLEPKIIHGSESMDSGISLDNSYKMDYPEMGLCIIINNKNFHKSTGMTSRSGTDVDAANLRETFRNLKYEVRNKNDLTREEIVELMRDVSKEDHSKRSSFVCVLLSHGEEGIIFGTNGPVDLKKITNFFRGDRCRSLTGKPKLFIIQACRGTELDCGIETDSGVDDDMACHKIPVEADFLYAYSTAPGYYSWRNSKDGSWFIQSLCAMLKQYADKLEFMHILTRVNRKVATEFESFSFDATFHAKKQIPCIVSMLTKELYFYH

[13] = Vero E6 cell cytotoxicity, dose response, cytotoxicity control for non-replicating M. tuberculosis project, secondary assay (AID 492998); type: functional, VeroE6; conditions: Vero C1008
[14] = biological target: T4, Sentrin-specific protease 7 (Homo sapiens, UniProt Q9BQF6); type: functional;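 also: Luminescence-based dose-response confirmation of ultra-high-throughput screening hits, measuring inhibition of SENP7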
T4 sequence (Q9BQF6 whole entry): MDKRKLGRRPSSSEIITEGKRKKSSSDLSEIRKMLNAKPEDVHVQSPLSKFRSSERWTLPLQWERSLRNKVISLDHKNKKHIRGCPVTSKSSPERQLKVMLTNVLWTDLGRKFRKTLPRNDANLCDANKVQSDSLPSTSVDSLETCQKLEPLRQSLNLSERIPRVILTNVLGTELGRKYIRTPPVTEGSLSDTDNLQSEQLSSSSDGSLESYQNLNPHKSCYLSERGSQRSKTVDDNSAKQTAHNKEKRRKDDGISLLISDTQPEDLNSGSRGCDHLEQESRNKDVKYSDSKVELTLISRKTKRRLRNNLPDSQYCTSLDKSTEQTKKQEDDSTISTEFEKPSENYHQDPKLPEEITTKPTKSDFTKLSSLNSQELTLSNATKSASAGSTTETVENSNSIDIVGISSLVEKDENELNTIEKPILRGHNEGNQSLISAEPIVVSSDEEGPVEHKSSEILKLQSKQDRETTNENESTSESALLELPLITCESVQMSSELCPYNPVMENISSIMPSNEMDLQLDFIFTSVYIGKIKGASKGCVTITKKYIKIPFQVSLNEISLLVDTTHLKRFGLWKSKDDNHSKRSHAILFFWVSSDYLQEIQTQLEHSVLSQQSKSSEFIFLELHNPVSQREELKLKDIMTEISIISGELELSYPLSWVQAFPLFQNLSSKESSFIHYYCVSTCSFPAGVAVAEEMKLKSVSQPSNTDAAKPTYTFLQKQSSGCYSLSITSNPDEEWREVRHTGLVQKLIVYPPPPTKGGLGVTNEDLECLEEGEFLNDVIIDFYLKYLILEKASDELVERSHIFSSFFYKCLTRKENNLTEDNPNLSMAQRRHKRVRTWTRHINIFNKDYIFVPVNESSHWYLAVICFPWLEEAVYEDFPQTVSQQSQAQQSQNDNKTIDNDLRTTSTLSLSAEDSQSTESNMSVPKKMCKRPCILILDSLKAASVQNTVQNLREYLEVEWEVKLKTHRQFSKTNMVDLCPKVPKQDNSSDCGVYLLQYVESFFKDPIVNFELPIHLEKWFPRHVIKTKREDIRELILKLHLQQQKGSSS

[15] = biological target: T5, Sentrin-specific protease 6 (Homo sapiens, UniProt Q9GZR1); type: functional;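 also: Luminescence-based dose-response confirmatory assay of SENP6 inhibition, following up an ultra-high-throughput screen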
T5 sequence (Q9GZR1 whole entry): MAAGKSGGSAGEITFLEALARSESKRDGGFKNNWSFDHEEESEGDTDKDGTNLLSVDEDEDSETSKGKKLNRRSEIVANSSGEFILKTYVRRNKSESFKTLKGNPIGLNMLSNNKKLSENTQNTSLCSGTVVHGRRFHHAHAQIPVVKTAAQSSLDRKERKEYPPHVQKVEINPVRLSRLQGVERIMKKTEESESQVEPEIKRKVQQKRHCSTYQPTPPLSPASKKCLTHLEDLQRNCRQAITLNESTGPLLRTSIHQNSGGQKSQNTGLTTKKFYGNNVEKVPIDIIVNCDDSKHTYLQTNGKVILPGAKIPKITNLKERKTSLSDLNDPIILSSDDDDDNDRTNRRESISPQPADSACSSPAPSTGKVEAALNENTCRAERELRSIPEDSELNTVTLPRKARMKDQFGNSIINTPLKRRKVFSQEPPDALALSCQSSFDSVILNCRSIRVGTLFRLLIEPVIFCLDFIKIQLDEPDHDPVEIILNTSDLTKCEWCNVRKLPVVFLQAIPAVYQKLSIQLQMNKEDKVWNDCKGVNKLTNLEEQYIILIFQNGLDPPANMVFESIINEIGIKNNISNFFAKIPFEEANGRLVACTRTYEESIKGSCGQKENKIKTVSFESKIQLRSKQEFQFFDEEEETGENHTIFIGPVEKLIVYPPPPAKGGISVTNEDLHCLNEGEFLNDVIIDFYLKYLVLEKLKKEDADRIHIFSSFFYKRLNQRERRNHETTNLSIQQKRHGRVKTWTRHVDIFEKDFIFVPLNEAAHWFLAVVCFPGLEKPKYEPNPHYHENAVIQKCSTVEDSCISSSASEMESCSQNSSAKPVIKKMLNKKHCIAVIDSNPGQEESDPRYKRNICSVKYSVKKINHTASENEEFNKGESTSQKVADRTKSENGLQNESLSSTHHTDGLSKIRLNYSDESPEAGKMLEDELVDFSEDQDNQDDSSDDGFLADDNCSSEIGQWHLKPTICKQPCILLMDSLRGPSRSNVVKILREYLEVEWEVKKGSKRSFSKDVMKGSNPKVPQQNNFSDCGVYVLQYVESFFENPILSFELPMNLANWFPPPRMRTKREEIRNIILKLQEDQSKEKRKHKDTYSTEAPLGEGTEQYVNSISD

[16] = biological target: T6, Sentrin-specific protease 8 (Homo sapiens, UniProt Q96LD8); type: functional;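 also: luminescence read-out of SENP8 inhibition, dose-response confirmation following an ultra-high-throughput screen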
T6 sequence (Q96LD8 whole entry): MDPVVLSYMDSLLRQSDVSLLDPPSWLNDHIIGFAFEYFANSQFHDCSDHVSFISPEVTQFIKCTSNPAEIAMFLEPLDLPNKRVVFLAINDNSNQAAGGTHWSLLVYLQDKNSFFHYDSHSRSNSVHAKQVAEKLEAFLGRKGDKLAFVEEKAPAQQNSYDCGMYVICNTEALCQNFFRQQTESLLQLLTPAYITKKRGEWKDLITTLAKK

INS1 = assay: INS-1E survival protection against cytokine death – cell-based, luminescence, retest, dose response (AID 449756); type: functional; conditions: Rattus norvegicus;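 also: cell death triggered by IL-1 beta plus TNF-alpha plus IFN-gamma mixture; protective hits raise ATP signal compared with cytokine alone wells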
[17] = Trypanosoma cruzi growth suppression in host cells – NIH3T3 host cells, beta-gal luminescence, confirmation (AID 2044); type: functional, cell-based;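 also: intracellular parasites grown in NIH/3T3 mouse fibroblasts as host cells; luminescent beta-galactosidase reporter signal from transgenic T. cruzi replicating inside host cells; inhibitors lower the luminescence signal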
[18] = microbe, parasite or virus in culture; type: functional; conditions: Mycobacterium tuberculosis
Prothrombin = Prothrombin (Homo sapiens, UniProt P00734); assay: Thrombin 1536 HTS Dose Response Confirmation. [Related pubchem assays: 1046 (Thrombin 1536 HTS; hits were confirmed in this assay)]; type: functional
[19] = NIH3T3 cell viability loss – ATP luminescence, mouse fibroblasts, counter-screen, dose response (AID 2010); type: functional, cell-based;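 also: cells exposed to compound for about 90 hours before reading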
Cytochrome P450 2C19 = Cytochrome P450 2C19 (Homo sapiens, UniProt P33261); assay: Cytochrome panel assay with activity outcomes. Panel member name: p450-cyp2c19 Compounds with AC50 equal or less than 10 uM are considered active; type: functional; conditions: read-out: AC50
Cytochrome P450 1A2 = biological target: T7, Cytochrome P450 1A2 (Homo sapiens, UniProt P05177);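 also: PubChem cytochrome P450 panel assay, CYP1A2 panel member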
T7 sequence (P05177 whole entry): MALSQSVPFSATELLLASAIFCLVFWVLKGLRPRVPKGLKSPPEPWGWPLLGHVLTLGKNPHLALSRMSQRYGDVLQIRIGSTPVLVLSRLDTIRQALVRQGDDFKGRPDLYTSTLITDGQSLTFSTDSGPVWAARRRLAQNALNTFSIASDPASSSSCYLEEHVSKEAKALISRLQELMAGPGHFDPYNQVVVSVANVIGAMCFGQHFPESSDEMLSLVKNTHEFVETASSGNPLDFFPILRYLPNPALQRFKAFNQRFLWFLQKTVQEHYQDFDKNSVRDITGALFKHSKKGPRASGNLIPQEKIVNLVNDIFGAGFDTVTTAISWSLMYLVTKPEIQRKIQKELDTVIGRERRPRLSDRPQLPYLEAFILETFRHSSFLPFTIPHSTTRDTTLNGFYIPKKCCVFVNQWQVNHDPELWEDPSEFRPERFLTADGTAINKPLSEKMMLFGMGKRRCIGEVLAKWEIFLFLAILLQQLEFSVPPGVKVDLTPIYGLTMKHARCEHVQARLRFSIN

Cytochrome P450 3A4 = Cytochrome P450 3A4 (Homo sapiens, UniProt P08684);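 also: CYP3A4 tested as one member of a cytochrome P450 panel screen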
Cytochrome P450 2C9 = Cytochrome P450 2C9 (Homo sapiens, UniProt P11712)
Chain of Cytochrome P450 2C9 (P11712 whole entry): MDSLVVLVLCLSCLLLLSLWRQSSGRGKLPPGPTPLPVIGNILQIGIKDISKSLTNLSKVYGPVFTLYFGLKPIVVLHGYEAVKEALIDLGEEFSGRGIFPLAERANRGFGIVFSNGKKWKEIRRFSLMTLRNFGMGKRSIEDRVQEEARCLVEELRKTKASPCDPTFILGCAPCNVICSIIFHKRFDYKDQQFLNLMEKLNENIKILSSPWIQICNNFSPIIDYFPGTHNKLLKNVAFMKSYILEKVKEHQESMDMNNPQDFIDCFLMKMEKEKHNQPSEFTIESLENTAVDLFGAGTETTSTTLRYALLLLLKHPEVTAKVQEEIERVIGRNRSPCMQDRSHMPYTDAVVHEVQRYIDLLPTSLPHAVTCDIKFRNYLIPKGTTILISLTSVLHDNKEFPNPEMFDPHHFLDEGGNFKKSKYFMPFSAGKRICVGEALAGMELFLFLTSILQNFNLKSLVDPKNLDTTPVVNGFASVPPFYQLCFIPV

T2 sequence (Q92731 whole entry): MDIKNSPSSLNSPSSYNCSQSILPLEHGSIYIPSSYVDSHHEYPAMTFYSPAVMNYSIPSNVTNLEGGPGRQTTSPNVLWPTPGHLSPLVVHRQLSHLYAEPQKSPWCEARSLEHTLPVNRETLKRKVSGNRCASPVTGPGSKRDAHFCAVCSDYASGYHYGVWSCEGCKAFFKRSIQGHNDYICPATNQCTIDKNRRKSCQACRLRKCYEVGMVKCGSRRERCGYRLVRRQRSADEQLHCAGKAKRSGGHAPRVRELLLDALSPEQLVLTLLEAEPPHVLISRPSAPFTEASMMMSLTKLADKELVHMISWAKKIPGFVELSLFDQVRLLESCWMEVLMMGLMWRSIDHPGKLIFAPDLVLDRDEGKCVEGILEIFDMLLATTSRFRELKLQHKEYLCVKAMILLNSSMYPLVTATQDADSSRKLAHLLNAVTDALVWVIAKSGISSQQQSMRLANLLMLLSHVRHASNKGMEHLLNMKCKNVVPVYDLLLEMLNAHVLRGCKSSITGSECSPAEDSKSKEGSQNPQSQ
Chain of Glucose-6-phosphate 1-dehydrogenase (P11413 whole entry): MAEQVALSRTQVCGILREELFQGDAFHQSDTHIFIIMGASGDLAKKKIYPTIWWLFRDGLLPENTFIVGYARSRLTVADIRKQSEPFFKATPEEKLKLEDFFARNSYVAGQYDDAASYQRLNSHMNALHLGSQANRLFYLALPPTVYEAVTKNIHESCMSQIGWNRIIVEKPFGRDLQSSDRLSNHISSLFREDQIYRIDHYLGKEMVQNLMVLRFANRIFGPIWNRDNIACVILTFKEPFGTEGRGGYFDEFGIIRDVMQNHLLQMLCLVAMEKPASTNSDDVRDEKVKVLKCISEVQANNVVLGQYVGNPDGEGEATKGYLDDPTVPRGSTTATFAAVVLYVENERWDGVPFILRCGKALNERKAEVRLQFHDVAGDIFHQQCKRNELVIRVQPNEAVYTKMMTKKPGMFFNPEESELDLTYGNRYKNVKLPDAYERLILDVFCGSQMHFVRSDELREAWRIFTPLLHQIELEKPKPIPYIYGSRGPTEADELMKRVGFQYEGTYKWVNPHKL
Chain of Induced myeloid leukemia cell differentiation protein Mcl-1 (Q07820 whole entry): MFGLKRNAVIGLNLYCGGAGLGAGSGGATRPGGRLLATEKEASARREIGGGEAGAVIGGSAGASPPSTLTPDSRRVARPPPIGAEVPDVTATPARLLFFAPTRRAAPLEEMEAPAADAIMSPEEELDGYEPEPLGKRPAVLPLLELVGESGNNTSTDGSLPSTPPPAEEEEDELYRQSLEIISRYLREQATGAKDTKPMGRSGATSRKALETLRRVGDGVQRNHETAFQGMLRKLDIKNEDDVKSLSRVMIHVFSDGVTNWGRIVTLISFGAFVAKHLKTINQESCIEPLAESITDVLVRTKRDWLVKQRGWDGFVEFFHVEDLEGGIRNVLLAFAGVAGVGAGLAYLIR
Chain of Cytochrome P450 2C19 (P33261 whole entry): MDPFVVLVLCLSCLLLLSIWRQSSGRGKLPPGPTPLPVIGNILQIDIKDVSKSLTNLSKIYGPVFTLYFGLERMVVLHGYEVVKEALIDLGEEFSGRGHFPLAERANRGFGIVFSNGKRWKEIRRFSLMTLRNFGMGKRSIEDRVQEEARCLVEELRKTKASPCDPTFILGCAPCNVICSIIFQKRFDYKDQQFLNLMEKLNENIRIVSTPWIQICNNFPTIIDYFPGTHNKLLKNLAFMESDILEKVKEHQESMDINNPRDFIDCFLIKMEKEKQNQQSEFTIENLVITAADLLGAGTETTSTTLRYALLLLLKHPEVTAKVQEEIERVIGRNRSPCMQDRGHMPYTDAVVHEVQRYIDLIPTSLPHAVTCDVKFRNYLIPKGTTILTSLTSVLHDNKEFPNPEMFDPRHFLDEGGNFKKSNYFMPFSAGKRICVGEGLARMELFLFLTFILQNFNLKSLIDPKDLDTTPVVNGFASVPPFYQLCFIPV
Chain of Cytochrome P450 3A4 (P08684 whole entry): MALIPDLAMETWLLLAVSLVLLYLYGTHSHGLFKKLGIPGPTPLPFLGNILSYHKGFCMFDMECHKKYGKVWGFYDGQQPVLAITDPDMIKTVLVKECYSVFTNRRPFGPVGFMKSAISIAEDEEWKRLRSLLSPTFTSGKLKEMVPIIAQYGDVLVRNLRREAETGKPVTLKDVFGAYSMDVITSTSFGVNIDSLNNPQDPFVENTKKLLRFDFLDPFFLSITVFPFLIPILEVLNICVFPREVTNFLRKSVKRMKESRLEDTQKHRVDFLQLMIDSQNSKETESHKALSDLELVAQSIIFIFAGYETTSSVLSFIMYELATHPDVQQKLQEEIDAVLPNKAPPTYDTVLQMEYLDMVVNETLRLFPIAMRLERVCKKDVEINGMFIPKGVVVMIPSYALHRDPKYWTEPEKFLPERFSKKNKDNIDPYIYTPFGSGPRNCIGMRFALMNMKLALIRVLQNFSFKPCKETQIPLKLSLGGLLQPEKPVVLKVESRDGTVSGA

Cc1ccc(OCCCCn2cnc3ccccc32)c(C)c1
IC50 [1]: 2.29 µM (active)
IC50 [2]: 1.76 µM (active)
EC50 [3]: 70.8 µM (active)
EC50 [4]: 41.2 µM (active)
IC50 (Protein skinhead-1): > 100 µM (inactive)

Cc1ccc(/C=C2\C(=O)NC(=S)N(c3ccccc3F)C2=O)s1
IC50 [5]: 4.91 µM (active)
IC50 [6]: > 80 µM (inactive)

COc1cc(/C=C/C(=O)c2ccc(NS(=O)(=O)c3ccc(C)cc3)cc2)cc(OC)c1O
AC50 [7]: 2.27 µM (active)
IC50 (Vero [8]): > 25 µM (active)
CC50 (Vero [9]): 14.5 µM (active)

N=c1c(C(=O)NCc2ccco2)cc2c(=O)n3ccccc3nc2n1CCc1ccccc1
IC50 [1]: 0.861 µM (active)
IC50 [2]: 12.4 µM (inactive)
IC50 (Estrogen receptor beta [10]): > 50 µM (not active)
IC50 (Estrogen receptor beta [11]): > 50 µM (not active)

O=[N+]([O-])c1ccc(-c2nc3cc([N+](=O)[O-])ccc3[nH]2)cc1
EC50 [3]: 12 µM (active)
EC50 [4]: 13.2 µM (active)
CC50 [12]: 29.4 µM (active)
IC50 (Caspase-3): 27.2 µM (active)
CC50 [13]: 19.9 µM (active)
IC50 [14]: 17 µM (active)
IC50 [15]: 27.4 µM (active)
IC50 [16]: 24.8 µM (active)
AC50 (INS1): 3.9 µM (active)

COc1ccc(-c2c[n+]3c4n2CCCCC4=C(c2ccccc2)C3)cc1
IC50 [1]: > 16 µM (inactive)
IC50 [2]: 2.76 µM (active)
EC50 [17]: 0.169 µM (active)
CC50 [18]: 28.1 µM (active)
IC50 (Prothrombin): > 50 µM (not active)
EC50 [19]: > 60 µM (not active)
AC50 (Cytochrome P450 2C19): 3.55 µM (inconclusive)
AC50 (Cytochrome P450 1A2): 28.2 µM (inconclusive)
AC50 (Cytochrome P450 3A4): 3.16 µM (inconclusive)
AC50 (Cytochrome P450 2C9): 0.0316 µM (inconclusive)

Cc1cc(C)nc(N=C(N)Nc2ccc(OCc3ccccc3)cc2)n1
IC50 [1]: 0.988 µM (active)
IC50 [2]: 1.22 µM (active)

Cc1ccccc1OCC(=O)N/N=C/c1ccc(Sc2nc3ccccc3s2)o1
IC50 [6]: > 80 µM (inactive)
